The target of one data set is USP1/UAF1 enzyme (Homo sapiens, UniProt O94782). Kind of data set: USP1/UAF1 deubiquitination assay (ubiquitin-rhodamine 110 substrate). Type of data set: biochemical. Particulars: read-out: USP1 IC50 (Ub-Rho). The gist of the method: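 Cleavage of 150 nM ubiquitin-rhodamine 110 by 0.05 nM USP1/UAF1 was followed as fluorescence (Ex480/Em540, kinetic, 30 min) in Tris-HCl pH 7.8 buffer with EDTA, BSA, DTT and Tween-20. Compounds, top 10 μM, were preincubated with enzyme 10 min; % inhibition against no-enzyme and DMSO wells gave four-parameter IC50s.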
USP1/UAF1 enzyme, sequence (O94782 whole entry): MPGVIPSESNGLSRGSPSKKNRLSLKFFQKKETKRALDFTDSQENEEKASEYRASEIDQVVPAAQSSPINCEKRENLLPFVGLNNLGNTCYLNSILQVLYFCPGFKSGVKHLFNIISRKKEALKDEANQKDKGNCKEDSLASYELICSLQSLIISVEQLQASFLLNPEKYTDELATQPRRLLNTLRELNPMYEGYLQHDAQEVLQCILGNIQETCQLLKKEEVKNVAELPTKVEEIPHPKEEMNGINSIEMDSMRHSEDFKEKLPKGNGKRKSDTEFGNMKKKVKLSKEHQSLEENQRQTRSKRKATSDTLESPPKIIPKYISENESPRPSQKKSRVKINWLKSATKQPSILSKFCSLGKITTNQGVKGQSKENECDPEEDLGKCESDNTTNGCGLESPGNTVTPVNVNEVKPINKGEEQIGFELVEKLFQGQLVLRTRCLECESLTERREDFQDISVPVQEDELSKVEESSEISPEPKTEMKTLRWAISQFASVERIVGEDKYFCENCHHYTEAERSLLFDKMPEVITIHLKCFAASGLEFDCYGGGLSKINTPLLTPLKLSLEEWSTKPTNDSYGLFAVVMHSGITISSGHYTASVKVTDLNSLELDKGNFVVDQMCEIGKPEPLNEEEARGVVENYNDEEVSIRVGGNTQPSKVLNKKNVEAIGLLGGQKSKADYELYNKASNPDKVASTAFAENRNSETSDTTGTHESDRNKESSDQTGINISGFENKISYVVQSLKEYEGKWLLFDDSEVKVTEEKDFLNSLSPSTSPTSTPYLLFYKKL
USP1/UAF1 enzyme, sequence (Q8TAF3 whole entry partner): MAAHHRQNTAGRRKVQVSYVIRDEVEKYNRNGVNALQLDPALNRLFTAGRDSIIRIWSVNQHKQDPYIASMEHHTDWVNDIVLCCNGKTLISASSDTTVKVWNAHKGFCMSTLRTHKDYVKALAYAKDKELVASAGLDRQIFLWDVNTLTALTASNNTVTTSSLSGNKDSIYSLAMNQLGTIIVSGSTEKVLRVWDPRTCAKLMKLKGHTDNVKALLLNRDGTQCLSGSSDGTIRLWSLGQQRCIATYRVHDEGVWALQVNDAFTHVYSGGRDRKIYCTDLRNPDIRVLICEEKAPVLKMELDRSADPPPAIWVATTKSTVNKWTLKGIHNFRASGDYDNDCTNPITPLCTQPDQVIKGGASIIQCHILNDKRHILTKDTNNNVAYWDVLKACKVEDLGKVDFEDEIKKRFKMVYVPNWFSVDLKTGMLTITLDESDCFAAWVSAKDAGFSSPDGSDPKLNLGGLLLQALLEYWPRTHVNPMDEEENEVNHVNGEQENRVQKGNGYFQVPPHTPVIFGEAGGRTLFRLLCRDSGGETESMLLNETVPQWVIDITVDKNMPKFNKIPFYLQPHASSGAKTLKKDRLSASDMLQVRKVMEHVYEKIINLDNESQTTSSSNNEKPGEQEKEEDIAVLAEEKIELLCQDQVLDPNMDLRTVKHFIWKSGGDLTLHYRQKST

A short description of data set [1]: ADME solubility determination in PBS at pH 2.0 and pH 7.4. As to conditions: phosphate buffered saline, 25 °C, thermodynamic from solid. Type of data set: physicochemical. The protocol:
Certain Compounds of the Disclosure were assessed for ADME solubility at pH 2.0 and pH 7.4.
Stock solutions were prepared by adding each compound to DMSO at a concentration of 10 mM. Samples were prepared by adding 50 μL of each stock solution to separate vials. The vials were loaded onto a 96-well rack and dried. 500 μL of Phosphate Buffered Saline (PBS) pH 7.4 or PBS pH 2.0 were added into each vial. The vials were then shaken at 25° C. and 1,100 rpm for 24 hours.
After 24 hours, the vials were centrifuged at 3220 G and 25° C. for 30 minutes. The supernatant fluid was analyzed by LC-MS/MS against a standard of known concentration. The solubility of each sample was then calculated using the equation below: […]
where DF is the dilution factor.

Data set [2] can be described thus: Liver microsomal metabolic stability, rat liver microsomes (RLM). As to conditions: rat, liver microsomes, t1/2 (min) in RLM, 1 μM compound, 1 mg/mL microsomes, NADPH.
Data set [3] is described as follows: Liver microsomal metabolic stability, human liver microsomes (HLM). As to conditions: human, liver microsomes.
The mark [4] stands for this setting: pH 2, aqueous buffer, PBS pH 2.0, 25° C., read-out: Solubility at pH 2.0.
[5] abbreviates: pH 7.4, aqueous buffer, PBS pH 7.4, 25° C., read-out: Solubility at pH 7.4.

We go through 21 molecules from patent publication US20230219965A1 (KSQ Therapeutics, Inc., priority 2020, published 2023).

pIC50: −log10 of the molar value. Like-named read-outs stand apart in the source and are kept apart here. Where only a bound is given, the exact number is not on record here.

Take `CCn1cc(C(F)(F)F)nc1-c1ccc(N[C@@H]2CCCn3nc(-c4c(Cl)cnn4[C@H](C)CF)cc32)cc1` (single isomer, unassigned) [Example 323]: the pIC50 at USP1/UAF1 enzyme is over 7.00. Further, the solubility at 24 h in data set [1] (setting [4]) and in data set [1] (setting [5]) was under 10 µM each time. Moreover, the half-life at 1 μM in data set [2] and in data set [3] was over 25 min throughout. Regarding `CCn1cc(C(F)(F)F)nc1-c1ccc(N[C@@H]2CCCn3nc(-c4c(Cl)cnn4[C@@H](C)CF)cc32)cc1` (single isomer, unassigned) [Example 324], the negative-log IC50 (pIC50) at USP1/UAF1 enzyme is over 7.00. Besides, the solubility at 24 h in data set [1] (setting [4]) and in data set [1] (setting [5]) was under 10 µM each time. For the same molecule, the half-life at 1 μM in data set [2] and in data set [3] was over 25 min in each case.

As to `COCCOc1cc(CN2C(=O)CCn3nc(-c4c(Cl)cnn4C(C)C)nc32)ccc1-c1nc(C(F)(F)F)cn1C(C)C` [Example 167], the negative-log IC50 (pIC50) at USP1/UAF1 enzyme is 6.30 to 7.00. In addition, the solubility at 24 h in data set [1] (setting [4]) and in data set [1] (setting [5]) was under 10 µM each time. On to `[2H]C([2H])([2H])C([2H])(n1cc(C(F)(F)F)nc1-c1ccc(CN2C(=O)CCn3nc(-c4c(OC(F)F)ncnc4C4CC4)nc32)cc1)C([2H])([2H])[2H]` [Example 374, 2-(4-cyclopropyl-6-(difluoromethoxy)pyrimidin-5-yl)-4-(4-(1-(propan-2-yl-d7)-4-(trifluoromethyl)-1H-imidazol-2-yl)benzyl)-6,7-dihydro-[1,2,4]triazolo[1,5-a]pyrimidin-5(4H)-one], for which, on USP1/UAF1 enzyme, the negative-log IC50 (pIC50) is over 7.00. In the case of `[2H]C([2H])([2H])C([2H])([2H])n1cc(C(F)(F)F)nc1-c1ccc(CN2C(=O)CCn3nc(-c4c(OC(F)F)ncnc4C4CC4)nc32)cc1` [Example 375, 2-(4-cyclopropyl-6-(difluoromethoxy)pyrimidin-5-yl)-4-(4-(1-(ethyl-d5)-4-(trifluoromethyl)-1H-imidazol-2-yl)benzyl)-6,7-dihydro-[1,2,4]triazolo[1,5-a]pyrimidin-5(4H)-one], at USP1/UAF1 enzyme, the negative logarithm of the IC50 (pIC50) is over 7.00. Still for that read-out and setting: for `CCn1cc(C(F)(F)F)nc1-c1ccc(CN2C(=O)CCn3nc(-c4c(OC)ncnc4OC(F)F)nc32)cc1` [Example 376, 2-(4-(difluoromethoxy)-6-methoxypyrimidin-5-yl)-4-(4-(1-ethyl-4-(trifluoromethyl)-1H-imidazol-2-yl)benzyl)-6,7-dihydro-[1,2,4]triazolo[1,5-a]pyrimidin-5(4H)-one] the value was over 7.00; for `Cn1cc(C(F)(F)F)nc1-c1ccc(CN2C(=O)CCn3nc(-c4c(OC(F)F)ncnc4C4CC4)nc32)cc1F` [Example 377, 2-(4-cyclopropyl-6-(difluoromethoxy)pyrimidin-5-yl)-4-(3-fluoro-4-(1-methyl-4-(trifluoromethyl)-1H-imidazol-2-yl)benzyl)-6,7-dihydro-[1,2,4]triazolo[1,5-a]pyrimidin-5(4H)-one], over 7.00. As for `COc1ncnc(C2CC2)c1-c1nc2n(n1)CCC(=O)N2C(C)c1ccc(-c2nc(C(F)(F)F)cn2C)cc1` (stereo not shown) [Example 378, 2-(4-cyclopropyl-6-methoxypyrimidin-5-yl)-4-(1-(4-(1-methyl-4-(trifluoromethyl)-1H-imidazol-2-yl)phenyl)ethyl)-6,7-dihydro-[1,2,4]triazolo[1,5-a]pyrimidin-5(4H)-one], at USP1/UAF1 enzyme, the negative-log IC50 (pIC50) is over 7.00. On the same count and under the same terms, for `CCn1cc(C(F)(F)F)nc1-c1ccc(CN2C(=O)[C@@H](C)Cn3nc(-c4c(OC)ncnc4C4CC4)nc32)cc1` [Example 381, (S)-2-(4-cyclopropyl-6-methoxypyrimidin-5-yl)-4-(4-(1-ethyl-4-(trifluoromethyl)-1H-imidazol-2-yl)benzyl)-6-methyl-6,7-dihydro-[1,2,4]triazolo[1,5-a]pyrimidin-5(4H)-one] the value was over 7.00; for `CCn1cc(C(F)(F)F)nc1-c1ccc(CN2C(=O)[C@H](C)Cn3nc(-c4c(OC)ncnc4C4CC4)nc32)cc1` [Example 382, (R)-2-(4-cyclopropyl-6-methoxypyrimidin-5-yl)-4-(4-(1-ethyl-4-(trifluoromethyl)-1H-imidazol-2-yl)benzyl)-6-methyl-6,7-dihydro-[1,2,4]triazolo[1,5-a]pyrimidin-5(4H)-one], over 7.00; for `COc1ncnc(C2CC2)c1-c1nc2n(n1)CC(C)C(=O)N2Cc1ccc(-c2nc(C(F)(F)F)cn2C(C)CF)cc1` (stereo not shown) [Example 383, 2-(4-cyclopropyl-6-methoxypyrimidin-5-yl)-4-(4-(1-(1-fluoropropan-2-yl)-4-(trifluoromethyl)-1H-imidazol-2-yl)benzyl)-6-methyl-6,7-dihydro-[1,2,4]triazolo[1,5-a]pyrimidin-5(4H)-one], 6.30 to 7.00. Still for that read-out and setting: as for `CCn1cc(C(F)(F)F)nc1-c1ccc(C(C)N2C(=O)C(C)Cn3nc(-c4c(OC)ncnc4C4CC4)nc32)cc1` (stereo not shown) [Example 384, 2-(4-cyclopropyl-6-methoxypyrimidin-5-yl)-4-(1-(4-(1-ethyl-4-(trifluoromethyl)-1H-imidazol-2-yl)phenyl)ethyl)-6-methyl-6,7-dihydro-[1,2,4]triazolo[1,5-a]pyrimidin-5(4H)-one], the figure is over 7.00.

For `Cn1cc(C(F)(F)F)nc1-c1ccc(Cn2c(=O)ccn3nc(-c4c(OC(F)F)ncnc4C4CC4)nc23)cc1F` [Example 385, 2-(4-cyclopropyl-6-(difluoromethoxy)pyrimidin-5-yl)-4-(3-fluoro-4-(1-methyl-4-(trifluoromethyl)-1H-imidazol-2-yl)benzyl)-[1,2,4]triazolo[1,5-a]pyrimidin-5(4H)-one], on USP1/UAF1 enzyme, the negative logarithm of the IC50 (pIC50) is over 7.00.

As to `COc1ncnc(C2CC2)c1-c1nc2n(Cc3ccc(-c4nc(C(F)(F)F)cn4C)c(F)c3)c(=O)ccn2n1` [Example 386, 2-(4-cyclopropyl-6-methoxypyrimidin-5-yl)-4-(3-fluoro-4-(1-methyl-4-(trifluoromethyl)-1H-imidazol-2-yl)benzyl)-[1,2,4]triazolo[1,5-a]pyrimidin-5(4H)-one], the negative logarithm of the IC50 (pIC50) on USP1/UAF1 enzyme was over 7.00. In the case of `COc1ncnc(C2CC2)c1-c1cc2n(n1)CCCC2Nc1ccc(-c2nc(C(F)(F)F)cn2CCF)cc1` (stereo not shown) [Example 387, 2-(4-cyclopropyl-6-methoxypyrimidin-5-yl)-N-(4-(1-(2-fluoroethyl)-4-(trifluoromethyl)-1H-imidazol-2-yl)phenyl)-4,5,6,7-tetrahydropyrazolo[1,5-a]pyridin-4-amine], on USP1/UAF1 enzyme, the pIC50 was over 7.00.

Turning to `COc1ncnc(C2CC2)c1-c1cc2n(n1)CCCC2Nc1ccc(-c2nc(C(F)(F)F)cn2C)c(F)c1` (stereo not shown) [Example 388, 2-(4-cyclopropyl-6-methoxypyrimidin-5-yl)-N-(3-fluoro-4-(1-methyl-4-(trifluoromethyl)-1H-imidazol-2-yl)phenyl)-4,5,6,7-tetrahydropyrazolo[1,5-a]pyridin-4-amine], at USP1/UAF1 enzyme, the negative logarithm of the IC50 (pIC50) is over 7.00.

For `[2H]C([2H])([2H])C([2H])([2H])n1cc(C(F)(F)F)nc1-c1ccc(NC2CCCn3nc(-c4c(OC)ncnc4C4CC4)cc32)cc1` (stereo not shown) [Example 389, 2-(4-cyclopropyl-6-methoxypyrimidin-5-yl)-N-(4-(1-(ethyl-d5)-4-(trifluoromethyl)-1H-imidazol-2-yl)phenyl)-4,5,6,7-tetrahydropyrazolo[1,5-a]pyridin-4-amine], the pIC50 on USP1/UAF1 enzyme was over 7.00. On to `CC(CF)n1cc(C(F)(F)F)nc1-c1ccc(NC2CCCn3nc(-c4c(Cl)cnn4C(C)C)cc32)cc1` (stereo not shown) [Example 390, 2-(4-chloro-1-isopropyl-1H-pyrazol-5-yl)-N-(4-(1-(1-fluoropropan-2-yl)-4-(trifluoromethyl)-1H-imidazol-2-yl)phenyl)-4,5,6,7-tetrahydropyrazolo[1,5-a]pyridin-4-amine], for which, at USP1/UAF1 enzyme, the negative logarithm of the IC50 (pIC50) is over 7.00. As for `CCn1cc(C(F)(F)F)nc1-c1ccc(Cn2c(=O)c(C)cn3nc(-c4c(OC)ncnc4C4CC4)nc23)cc1` [Example 391, 2-(4-cyclopropyl-6-methoxypyrimidin-5-yl)-4-(4-(1-ethyl-4-(trifluoromethyl)-1H-imidazol-2-yl)benzyl)-6-methyl-[1,2,4]triazolo[1,5-α]pyrimidin-5(4H)-one], at USP1/UAF1 enzyme, the negative logarithm of the IC50 (pIC50) was over 7.00. The same measure, in the same setting: as for `CCn1cc(C(F)(F)F)nc1-c1ccc(Cn2c(=O)c(C)cn3nc(-c4c(OC(F)F)ncnc4C4CC4)nc23)cc1` [Example 392, 2-(4-cyclopropyl-6-(difluoromethoxy)pyrimidin-5-yl)-4-(4-(1-ethyl-4-(trifluoromethyl)-1H-imidazol-2-yl)benzyl)-6-methyl-[1,2,4]triazolo[1,5-a]pyrimidin-5(4H)-one], the figure is over 7.00; as for `COc1ncnc(C2CC2)c1-c1cc2n(n1)CCC[C@@H]2Oc1ccc(-c2nc(C(F)(F)F)cn2C(C)CF)cc1` (stereo partly drawn) [Example 393, (4S)-2-(4-cyclopropyl-6-methoxypyrimidin-5-yl)-4-(4-(1-(1-fluoropropan-2-yl)-4-(trifluoromethyl)-1H-imidazol-2-yl)phenoxy)-4,5,6,7-tetrahydropyrazolo[1,5-α]pyridine], over 7.00.

The pIC50 is the negative decadic logarithm of the IC50, by convention in mol/L. As a reminder, the solubility is how much of the substance goes into solution per volume. What is called half-life is how long it takes for the measured level to halve. A high value points to slow decline.
